Here are results for two compounds from patent US6916808B2, “2-thio-4h-3, 1-benzoxazin-4-one derivatives for use as enzyme inhibitors” (Alizyme Therapeutics Limited, priority 2000, dated 2005).

The assay has as its target T1, porcine pancreatic lipase (Sus scrofa, UniProt P00591).
T1 sequence (P00591 1-450): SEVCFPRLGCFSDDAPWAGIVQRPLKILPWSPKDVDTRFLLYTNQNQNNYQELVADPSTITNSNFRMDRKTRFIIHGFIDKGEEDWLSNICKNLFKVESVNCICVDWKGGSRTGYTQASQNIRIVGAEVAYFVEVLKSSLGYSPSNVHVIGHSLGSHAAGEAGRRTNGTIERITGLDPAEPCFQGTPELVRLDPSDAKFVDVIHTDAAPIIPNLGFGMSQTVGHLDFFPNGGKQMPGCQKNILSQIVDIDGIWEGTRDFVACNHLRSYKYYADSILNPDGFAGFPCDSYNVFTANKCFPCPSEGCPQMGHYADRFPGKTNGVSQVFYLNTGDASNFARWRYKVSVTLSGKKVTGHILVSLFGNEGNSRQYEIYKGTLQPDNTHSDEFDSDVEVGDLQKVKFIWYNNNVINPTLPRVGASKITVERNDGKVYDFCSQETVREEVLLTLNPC
The assay is described as follows: Lipase enzyme activity, NaOH titration method (lipid micelles). As to conditions: NaOH titration assay; system containing lipid micelles. In kind it is biochemical. The procedure:
Measurement of Lipase Enzyme Activity Using a NaOH Titration Method
The inhibitory activity of the selected compounds to pancreatic lipase was measured in the assay described in Pasquier et al; 1996, Vol 7, Nutritional Biochemistry, 293-302.
Log dose/response curves were constructed using a range of inhibitor concentrations.
Selected benzoxazinone compounds were tested in the NaOH titration assay. In this assay, the activity of porcine pancreatic lipase in a system containing lipid micelles is recorded. These conditions are therefore similar to those encountered in the gastrointestinal tract.

Where only a bound is given, the exact number is not on record here.

Take `Cc1ccc2nc(Sc3ccccc3)oc(=O)c2c1` [Compound 4, 6-Methyl-2-phenylthio-4H-3,1-benzoxazin-4-one]: the IC50 (in general, the concentration that gives 50% inhibition) was below 1 µM.
The compound `Cc1ccc2nc(SCCCCCCCCCCc3ccccc3)oc(=O)c2c1` [Compound 5, 6-Methyl-2-(10-phenyldecyl)-thio-4H-3,1-benzoxazin-4-one] registered an IC50 below 1 µM.
